Source: patent US10869931B2, “Polyethylene glycol-modified angiogenesis inhibitor HM-1 and application thereof” (NANJING ANJI BIOLOGICAL TECHNOLOGY CO.,LTD, priority 2016, dated 2020)
Marks after values point to notes of the source that are not given here. Where no end group is shown, it is not given here.

Assays:
[1] = system: Thyroid cancer tumor cells; assay: MTT proliferation inhibition, thyroid cancer cells; format: cell-based, human; set-up: concentration or dose not given beside the values; conditions: 48 h
Procedure: (§1) The activity of mPEG-HM-1 to inhibit the growth of various tumor cells was examined by MTT assay. The tumor cells were cultured to a concentration of 90% or more in a 37° C., 5% CO2 incubator and collected by trypsinization. The cells were resuspended in the culture medium and counted under a microscope to adjust the cell concentration to 2×10^4 cells/mL, the cell suspension was inoculated into a 96-well plate at 100 μL/well and incubated overnight at 37° C. in a 5% CO2 incubator. mPEG-HM-1 was diluted with the culture solution to each predetermined concentration. Docetaxel is diluted to the final concentration with the culture medium. After the cells were fully attached, each dilution was added to a 96-well plate (100 μL/well). The mPEG-HM-1 dilution was added as a drug-administered group, and docetaxel was added as a positive control group, and a culture solution without any drug was used as a negative control group. Incubate for 48 h at 37° C. in a 5% CO2 incubator. 5 mg/mL of MTT was added to a 96-well plate at 20 μL per well, and incubation was continued for 4 hours. The medium was aspirated, dissolved in 150 μL of DMSO per well, and gently mixed by shaking for 10 min. The absorbance was measured at a measurement wavelength of 570 nm and a reference wavelength of 630 nm using a microplate reader, and the rate of growth inhibition (proliferation inhibition, PI) was calculated. The formula is as follows: PI (%)=1−administration group/negative group
(§2) The test was repeated 3 times independently, and the results obtained by the test were expressed as mean±SD, and the test results are shown in Table 15 to Table 18.

[2] = system: xylene-induced ear swelling in Kunming mice; assay: Xylene-induced ear swelling in mice; format: in vivo, mouse; conditions: for Swelling: 2 h after xylene; for Inhibition rate: ear swelling vs control
Procedure: Kunming mice were used. The saline group was used as the blank control group, the aspirin group (200 mg/kg) as the positive control group, and the mPEG-HM-1 administration group as the experimental group. Mice were administered once daily for 5 consecutive days. The blank control group was given an equal volume of physiological saline. One hour after the last administration, 0.05 mL of xylene was applied to both sides of the right ear of the mice to cause inflammation, and the left ear was not coated as normal ears. After 2 h, the mice were sacrificed by dislocation, and the ears were cut along the auricle. Ear pieces were taken with a puncher, weighed, and the swelling degree and swelling rate were calculated. Swelling degree=right ear piece weight-left ear piece weight, swelling rate=(swelling degree/left ear piece weight)×100%. Statistical t-test was performed on the test results, *P<0.05 was a significant difference, and **P<0.01 was a very significant difference. See Table 31 to Table 34 for the results.

Lung cancer tumor cells = assay: MTT proliferation inhibition, lung cancer cells; format: cell-based, human; set-up: concentration or dose not given beside the values; conditions: 48 h
Procedure: as §1, §2

[3] = system: Uterine cancer tumor cells; assay: MTT proliferation inhibition, uterine cancer cells; format: cell-based, human; set-up: concentration or dose not given beside the values; conditions: 48 h
Procedure: as §1, §2

[4] = system: Cervical cancer tumor cells; assay: MTT proliferation inhibition, cervical cancer cells; format: cell-based, human; set-up: concentration or dose not given beside the values; conditions: 48 h
Procedure: as §1, §2

[5] = system: IL-1β production by mouse peritoneal macrophages; assay: IL-1β production by mouse peritoneal macrophages (ELISA); format: cell-based; conditions: 48 h
Procedure: (1) IL-1β production: mice were intraperitoneally injected with 1 mL of broth (containing 6%) starch, and three days later, the mouse peritoneal macrophages were aseptically taken, washed twice with 1640 medium, and the cell concentration was adjusted to 2×10^6 cells/mL, inject into a 24-well culture plate, 1 mL per well, incubate for 3 hours in a cell culture incubator, shake once every 30 minutes, and allow the cells to fully adhere. Then, it was washed twice with the culture solution to remove unattached cells. The blank group was added with PBS, the positive group was added with the positive drug dexamethasone (Dex), the model group was not administered, to the experimental group was added low, medium and high three concentrations of mPEG-HM-1, and the culture was continued for 48 hours after the administration, 1000 r/min. Centrifuge for 15 min. The supernatant was taken as a sample for testing activity of IL-1β.
(2) Determination of IL-1β content: using R&D mouse IL-1β enzyme-linked immunosorbent assay kit, according to the kit instructions as follows: respectively, the tested samples and different concentrations of standard products, sealed with sealing tape the reaction well and incubated at 37° C. for 90 min; the plate was washed four times; the biotinylated antibody working solution (100 μL/well) was added, and the reaction well was sealed with sealing paper, incubated at 37° c. for 60 min; the plate was washed four times; Add the enzyme conjugate working solution (100 μL/well), seal the reaction well with sealing paper, incubate at 37° C. for 30 min; wash the plate four times; add color reagent (100 μL/well), incubate at 37° C. 10-20 min, add stop solution (100 μL/well), mix and measure OD450 value.

Brain tumor cells = assay: MTT proliferation inhibition, brain tumor cells; format: cell-based, human; set-up: concentration or dose not given beside the values; conditions: 48 h
Procedure: as §1, §2

[6] = system: Prostate cancer tumor cells; assay: MTT proliferation inhibition, prostate cancer cells; format: cell-based, human; set-up: concentration or dose not given beside the values; conditions: 48 h
Procedure: as §1, §2

mouse spleen lymphocytes = assay: ConA-stimulated mouse spleen lymphocyte proliferation (MTT); format: cell-based; conditions: ConA 5 μg/mL, 48 h
Procedure: Tris-NH4Cl was used to break the red blood cells, and the cells were allowed to stand in an ice water bath for 4 min, centrifuged (1000 rpm×5 min), the supernatant was discarded, and the cells were washed twice with sterile PBS. Finally, cells were suspended in RPMI 1640 medium (5 mL) supplemented with 10% calf serum, counted, adjusted to a cell concentration of 5×10^6/mL, and cultured in a 96-well culture plate The test group consisted of blank control group, concanavalin A (ConA) group, dexamethasone (Dex) group (0.02 mg/mL) and mPEG-HM-1 group. […] The cells were cultured in a 37° C. cell culture chamber for 48 h. After the completion of the culture, 20 μL of MTT was added to each well, and the culture was continued for 4 h. Finally, all the solutions in each well were discarded, 100 μL of DMSO was added to each well, and the mixture was shaken and detected by a microplate reader OD value at 570 nm, 5 parallels per hole.

[7] = in vivo
[8] = system: Head and neck cancer tumor cells; assay: MTT proliferation inhibition, head and neck cancer cells; format: cell-based, human; set-up: concentration or dose not given beside the values; conditions: 48 h
Procedure: as §1, §2

[9] = 160 mg/kg once daily for 5 days

## mPEG-ALD40k-Arg-Gly-Ala-Asp-Arg-Ala-Gly-Gly-Gly-Gly-Arg-Gly-Asp ({mPEG‑ALD 40 kDa}-RGADRAGGGGRGD) [mPEG-ALD40k-HM-1]
[1]
  rate of growth inhibition: 49.03 ± 13.08%
[2]; 40 mg/kg once daily for 5 days
  Swelling: 5.41 ± 0.16 mg
  Inhibition rate: 11.53%
[2]; 80 mg/kg once daily for 5 days
  Swelling: 4.77 ± 0.62* mg
  Inhibition rate: 22.02%
[2]; [9]
  Swelling: 4.16 ± 0.25** mg
  Inhibition rate: 32.09%
Lung cancer tumor cells
  rate of growth inhibition: 55.44 ± 16.13%
[3]
  rate of growth inhibition: 82.59 ± 21.37%
[4]
  rate of growth inhibition: 70.62 ± 19.14%
[5]; 40 μg/mL
  IL-1β: 742.06 ± 16.59 pg/mL
  Inhibition Rate of IL-1β production: 19.07%
[5]; 80 μg/mL
  IL-1β: 664.40 ± 18.43 pg/mL
  Inhibition Rate of IL-1β production: 27.54%
[5]; 160 μg/mL
  IL-1β: 495.96 ± 10.95 pg/mL
  Inhibition Rate of IL-1β production: 45.91%
Brain tumor cells
  rate of growth inhibition: 50.69 ± 14.41%
[6]
  rate of growth inhibition: 42.91 ± 11.65%
Mouse spleen lymphocytes; 40 μg/mL
  A570 nm/A630 nm: 0.6176 ± 0.0998
  Inhibition Rate of spleen lymphocyte proliferation: 10.09%
Mouse spleen lymphocytes; 80 μg/mL
  A570 nm/A630 nm: 0.5040 ± 0.1239
  Inhibition Rate of spleen lymphocyte proliferation: 26.63%
Mouse spleen lymphocytes; 160 μg/mL
  A570 nm/A630 nm: 0.4770 ± 0.1057
  Inhibition Rate of spleen lymphocyte proliferation: 30.56%
[7]
  AUC0-∞: 5276.69 ± 9.84 mg/L/h
  CL: 0.108 ± 0.0967 mL/min/kg
  MRT0-∞: 16.52 ± 3.06 h
  T1/2β (half-life): 43.31 ± 0.22 h
[8]
  rate of growth inhibition: 42.18 ± 10.01%

## mPEG-bALD40k-Arg-Gly-Ala-Asp-Arg-Ala-Gly-Gly-Gly-Gly-Arg-Gly-Asp ({mPEG‑bALD 40 kDa}-RGADRAGGGGRGD) [mPEG-bALD40k-HM-1]
[1]
  rate of growth inhibition: 45.53 ± 12.98%
[2]; 40 mg/kg once daily for 5 days
  Swelling: 5.25 ± 0.12 mg
  Inhibition rate: 13.45%
[2]; 80 mg/kg once daily for 5 days
  Swelling: 4.68 ± 0.72* mg
  Inhibition rate: 22.94%
[2]; [9]
  Swelling: 4.06 ± 0.26** mg
  Inhibition rate: 33.09%
Lung cancer tumor cells
  rate of growth inhibition: 56.47 ± 14.15%
[3]
  rate of growth inhibition: 70.51 ± 20.22%
[4]
  rate of growth inhibition: 70.34 ± 19.04%
[5]; 40 μg/mL
  IL-1β: 740.78 ± 16.79 pg/mL
  Inhibition Rate of IL-1β production: 19.67%
[5]; 80 μg/mL
  IL-1β: 648.10 ± 14.55 pg/mL
  Inhibition Rate of IL-1β production: 29.72%
[5]; 160 μg/mL
  IL-1β: 518.91 ± 12.90 pg/mL
  Inhibition Rate of IL-1β production: 43.73%
Brain tumor cells
  rate of growth inhibition: 51.89 ± 11.91%
[6]
  rate of growth inhibition: 40.82 ± 11.75%
Mouse spleen lymphocytes; 40 μg/mL
  A570 nm/A630 nm: 0.6191 ± 0.0986
  Inhibition Rate of spleen lymphocyte proliferation: 10.77%
Mouse spleen lymphocytes; 80 μg/mL
  A570 nm/A630 nm: 0.5089 ± 0.1230
  Inhibition Rate of spleen lymphocyte proliferation: 26.65%
Mouse spleen lymphocytes; 160 μg/mL
  A570 nm/A630 nm: 0.4848 ± 0.1146
  Inhibition Rate of spleen lymphocyte proliferation: 30.12%
[7]
  AUC0-∞: 5065.72 ± 9.56 mg/L/h
  CL: 0.11 ± 0.11 mL/min/kg
  MRT0-∞: 16.75 ± 3.29 h
  T1/2β (half-life): 43.88 ± 0.20 h
[8]
  rate of growth inhibition: 40.09 ± 12.02%

## mPEG2-NHS20k-Arg-Gly-Ala-Asp-Arg-Ala-Gly-Gly-Gly-Gly-Arg-Gly-Asp ({mPEG2‑NHS 20 kDa}-RGADRAGGGGRGD) [mPEG2-NHS20k-HM-1]
[1]
  rate of growth inhibition: 43.68 ± 13.61%
[2]; 20 mg/kg once daily for 5 days
  Swelling: 5.52 ± 0.16 mg
  Inhibition rate: 10.65%
[2]; 40 mg/kg once daily for 5 days
  Swelling: 4.80 ± 0.29* mg
  Inhibition rate: 22.37%
[2]; 80 mg/kg once daily for 5 days
  Swelling: 3.96 ± 0.22** mg
  Inhibition rate: 35.92%
Lung cancer tumor cells
  rate of growth inhibition: 50.82 ± 12.68%
[3]
  rate of growth inhibition: 65.99 ± 22.07%
[4]
  rate of growth inhibition: 60.63 ± 19.39%
[5]; 20 μg/mL
  IL-1β: 759.06 ± 16.96 pg/mL
  Inhibition Rate of IL-1β production: 18.04%
[5]; 40 μg/mL
  IL-1β: 655.24 ± 18.59 pg/mL
  Inhibition Rate of IL-1β production: 29.25%
[5]; 80 μg/mL
  IL-1β: 552.35 ± 10.50 pg/mL
  Inhibition Rate of IL-1β production: 40.36%
Brain tumor cells
  rate of growth inhibition: 45.51 ± 10.15%
[6]
  rate of growth inhibition: 47.75 ± 10.14%
Mouse spleen lymphocytes; 20 μg/mL
  A570 nm/A630 nm: 0.6082 ± 0.0990
  Inhibition Rate of spleen lymphocyte proliferation: 12.16%
Mouse spleen lymphocytes; 40 μg/mL
  A570 nm/A630 nm: 0.4879 ± 0.1156
  Inhibition Rate of spleen lymphocyte proliferation: 29.53%
Mouse spleen lymphocytes; 80 μg/mL
  A570 nm/A630 nm: 0.4375 ± 0.1095
  Inhibition Rate of spleen lymphocyte proliferation: 36.82%
[7]
  AUC0-∞: 4682.53 ± 15.01 mg/L/h
  CL: 0.218 ± 0.17 mL/min/kg
  MRT0-∞: 18.16 ± 10.22 h
  T1/2β (half-life): 22.38 ± 0.34 h
[8]
  rate of growth inhibition: 46.18 ± 11.22%
